Experimental data reported in US9572833B2, “Treatment of red blood cells” (The General Hospital Corporation, priority 2011, dated 2017).
Values belong to the molecule of their own block, whether it stands above or below them.

What was measured:
[1] = target: T1, supernatant hemoglobin (Homo sapiens, UniProt P68871+P69905); assay: MAHMA/NO treatment of human stored red blood cells; type: biochemical; settings: human RBC stored 46 days
T1 construct: 99% of the supernatant hemoglobin being oxidized to methemoglobin; from tissue; host or cells: human stored red blood cells (46 days), supernatant and cells
Description: Human stored red blood cells (stored, 46 days) were treated with MAHMA/NO ((Z)-1-[N-Methyl-N-[6-(N-methylammoniohexyl)amino]]diazen-1-ium-1,2-diolate). […] In contrast, only 15% of the red blood cell hemoglobin was oxidized by this treatment (FIG. 14A).

[2] = target: T2, supernatant hemoglobin (Mus musculus, UniProt P01942+P02088); assay: MAHMA/NO treatment of murine stored red blood cells; type: biochemical; settings: murine RBC stored 14 days
T2 construct: from tissue; host or cells: murine stored red blood cells (14 days), supernatant
From the text: This is likely due to the higher levels of hemolysis observed in murine red blood cell storage. At baseline levels, hemolysis is higher than in human stored red blood cells, and increasing concentrations of MAHMA/NO were required to fully oxidize the […] hemoglobin.

[3] = Tail-cuff systolic blood pressure in db/db mice after infusion of MAHMA/NO pre-treated stored red blood cells; type: in vivo; settings: SRBC pre-treated with 1 mM MAHMA/NO; awake db/db mice
Description: Murine stored red blood cells were pretreated with 1 mM MAHMA before infusion into db/db mice.

[4] = Non-invasive measurement of systolic blood pressure in awake mice after transfusion; type: in vivo; settings: awake db/db mice; 80 ppm from 10 min prior to transfusion until 2 h after
Description: Systolic blood pressure was measured with a non-invasive blood pressure system (XBP 1000, Kent Scientific, Torrington, Conn.) (Yu et al., Circulation 2008; 117: 1982-90; Yu et al., Anesthesiology 2010; 112: 586-94). All tail vein injections were performed over one minute.

[5] = Hemodynamic effects of PRBC transfusion in awake lambs; type: in vivo; settings: 80 ppm during transfusion and 30 min thereafter, no L-NAME
Description: (§1) Invasive hemodynamic measurements were performed in 28 lambs. Anesthesia was induced by breathing 5% isoflurane (Baxter, Deerfield, Ill.) in oxygen via mask. After endotracheal intubation, animals underwent a tracheostomy and were instrumented with indwelling carotid artery and pulmonary artery catheters, as previously described (Yu et al., Anesthesiology 2010; 112:586-94). After a 2-h recovery period from general anesthesia in a large-animal restraint unit (Lomir, Malone, N.Y.), the mean arterial pressure (MAP), mean pulmonary arterial pressure (PAP), and central venous pressure were monitored continuously using a Gould 6600 amplifier system (Gould Electronics, Inc., Eastlake, Ohio). Pulmonary capillary wedge pressure (PCWP) and heart rate were intermittently measured every 10-30 min. Cardiac output was assessed by thermal dilution as the average of three measurements after intravenous bolus-injection of 10 ml ice-cold saline solution. Systemic vascular resistance index and pulmonary vascular resistance index (PVRI), as well as cardiac index, were calculated using standard formulae. Hemodynamic data was collected until 4 h after the end of transfusion.
Six groups of awake lambs were studied. […]

[6] = Hemodynamic effects of PRBC transfusion in lamb model of L-NAME-induced endothelial dysfunction; type: in vivo; settings: lambs pretreated with L-NAME
Description: as §1
(§2) Three additional groups of lambs were studied after intravenous infusion of the NOS inhibitor, N^G-nitro-L-arginine methyl-ester (L-NAME, Sigma-Aldrich, St. Louis, Mo.). A bolus of 25 mg/kg L-NAME was injected IV 1 h before transfusion (Weimann et al., Anesthesiology 2000; 92:1702-12). Concomitantly, an infusion of 5 mg/kg/h L-NAME was started and continued throughout the study. […] NOS-independent systemic vasodilation was also assessed by intravenous injection of sodium nitroprusside (Sigma-Aldrich) at the end of each experiment.
After L-NAME treatment, a fourth group of lambs (n=4) received fresh PRBCs, and a fifth group (n=5) received stored PRBCs. In the sixth group (n=4), following L-NAME injection, inhalation of 80 ppm nitric oxide at FiO2 0.25 was commenced 10 min prior to transfusion of stored PRBC. Nitric oxide breathing continued throughout the transfusion and for 30 min after transfusion ended.

[7] = target: T3, human hemoglobin (Homo sapiens, UniProt P68871+P69905); assay: Methemoglobin conversion after nitric oxide gas treatment of red blood cells via membrane gas exchanger; type: biochemical; settings: 2600 ppm nitric oxide in nitrogen, single pass
T3 construct: from tissue; host or cells: human red blood cells (adsol-preserved) plus plasma with added human hemoglobin
Description: Plasma containing added human hemoglobin was added to adsol-preserved human red blood cells. The red blood cells were pumped (at flow rates of 5, 7.5, and 10 ml/min) through a membrane gas exchanger (Living Systems instrumentation Inc., St. Albans, Vt.), which exposed the cells (on a single pass through the gas exchanger) to 2600 ppm nitric oxide gas in nitrogen.

[8] = test system: NOS; assay: Partial inhibition of NOS by L-NAME in lambs (acetylcholine / sodium nitroprusside vasodilation, hemodynamics); type: in vivo
Description: as §2

[9] = 25 mg/kg IV bolus plus 5 mg/kg/h infusion

T1 sequence (P69905 2-142 limits assumed): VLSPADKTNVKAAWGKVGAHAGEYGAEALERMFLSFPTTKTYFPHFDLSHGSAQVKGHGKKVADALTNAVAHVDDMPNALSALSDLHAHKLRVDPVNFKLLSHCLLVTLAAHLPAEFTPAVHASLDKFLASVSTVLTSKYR
T1 sequence (P68871 2-147 limits assumed): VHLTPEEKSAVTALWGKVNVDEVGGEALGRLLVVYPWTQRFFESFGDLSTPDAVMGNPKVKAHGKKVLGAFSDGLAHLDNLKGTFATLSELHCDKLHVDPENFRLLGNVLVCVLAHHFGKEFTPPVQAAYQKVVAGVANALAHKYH
T2 sequence (P01942 2-142 limits assumed): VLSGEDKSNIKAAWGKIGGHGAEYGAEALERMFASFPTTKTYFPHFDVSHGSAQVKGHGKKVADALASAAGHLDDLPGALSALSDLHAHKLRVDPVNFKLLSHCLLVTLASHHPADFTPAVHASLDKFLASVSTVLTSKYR
T2 sequence (P02088 2-147 limits assumed): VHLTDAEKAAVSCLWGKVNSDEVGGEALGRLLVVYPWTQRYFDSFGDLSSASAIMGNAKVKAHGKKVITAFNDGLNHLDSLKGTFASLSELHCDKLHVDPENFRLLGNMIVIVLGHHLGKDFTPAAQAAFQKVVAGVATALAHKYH
T3 sequence (P69905 2-142 limits assumed): as the sequence (P69905 2-142 limits assumed) above
T3 sequence (P68871 2-147 limits assumed): as the sequence (P68871 2-147 limits assumed) above

- Red blood cell hemoglobin oxidized ([1]; 0.5 mM): 15%
- Supernatant hemoglobin oxidized to methemoglobin ([1]; 0.5 mM): 99%
- Supernatant methemoglobin ([2]; 1 mM): 70%
- Level of cell-free hemoglobin in the supernatant [2]: decreases upon addition of MAHMA/NO
SMILES: CNCCCCCCN(C)/[N+]([O-])=N/O [MAHMA/NO, (Z)-1-[N-Methyl-N-[6-(N-methylammoniohexyl)amino]]diazen-1-ium-1,2-diolate]
- Hemolysis after addition of MAHMA/NO [1]: no further hemolysis
- Hypertensive effect caused by infusion of stored red blood cells [3]: attenuated the hypertensive effect

SMILES: [N]=O [nitric oxide]
- Effect of breathing nitric oxide on systemic hypertension induced by SRBC transfusion [4]: completely prevented the systemic hypertension
- PAP with transfusion of stored PRBCs while breathing nitric oxide ([5]; baseline 12±1): 13±1 mmHg
- PVRI with transfusion of stored PRBCs while breathing nitric oxide ([5]; baseline 107±14): 105±22 dyn·sec·cm^−5·m^−2
- Effect of inhalation of nitric oxide on MAP ([6]; 80 ppm): did not alter MAP
- Effect of concurrent inhalation of nitric oxide on PAP and PVRI ([6]; 80 ppm, stored PRBC transfusion): reduced the PAP and PVRI to baseline
- Time after end of nitric oxide breathing at which PAP and PVRI returned to pre-transfusion levels [6]: 60 min
- Human red cell hemoglobin converted to methemoglobin [7]: only a few percent
- Supernatant oxyhemoglobin converted to methemoglobin ([7]; flow 5, 7.5, 10 ml/min, adsol-preserved human RBC): approximately 50%

SMILES: COC(=O)[C@@H](N)CCCNC(=N)N[N+](=O)[O-] [L-NAME, N^G-nitro-L-arginine methyl-ester]
- Reduction in the ability of acetylcholine infusion to induce systemic vasodilation [8, 9]: 50%
- Vasodilator response to intravenous bolus of sodium nitroprusside [8, 9]: did not alter the vasodilator response
- Cardiac index and heart rate after L-NAME infusion ([8]; awake lambs): decreased
- MAP, PAP, central venous pressure, PCWP, systemic and pulmonary vascular resistance indices after L-NAME infusion ([8]; awake lambs): increased
